Among the data in patent US20230048132A1, “CYCLIN-DEPENDENT KINASE INHIBITORS” (SPV THERAPEUTICS INC., priority 2018, published 2023) are IC50 values, retold here.

Where “and” joins values, the source holds several entries; their conditions need not be identical. Equal entries are not always repeated. Where two headings read alike, the source gives them in different places.

Common to all, as to assay: CDK inhibition assay (microfluidic LabChip, IC50 format)
For one assay, the target named is T1, CDK2-CYCLINA (Homo sapiens, UniProt P24941).
T1 construct: purchased Millipore
It counts as biochemical. The following applies: read-out: CDK2 CyclinA IC50.

Another assay deals with T2, CDK6-CYCLIND3 (Homo sapiens, UniProt Q00534).
T2 construct: purchased Carna
The format is biochemical.

The next assay addresses CDK7 CyclinH (Homo sapiens, UniProt P50613). It counts as biochemical.
Another assay addresses T3, CDK9-CYCLINT1 (Homo sapiens, UniProt P50750).
T3 construct: purchased Carna
The format is biochemical. Conditions: read-out: CDK9 CyclinT1 IC50.

Another assay addresses CDK4-CYCLIND1 (Homo sapiens, UniProt P11802).
[1] abbreviates: Table 4a, read-out: CDK6 CyclinD3 IC50.
Setting [2] is: CDK4 CyclinD1 IC50, Table 4a, a second value in parentheses for some compounds.
The mark [3] stands for this setting: Table 4b, upper part, read-out: CDK6 IC50.
The mark [4] stands for this setting: CDK4 IC50, Table 4b, upper part.

Chain of CDK7 CyclinH (P50613 whole entry): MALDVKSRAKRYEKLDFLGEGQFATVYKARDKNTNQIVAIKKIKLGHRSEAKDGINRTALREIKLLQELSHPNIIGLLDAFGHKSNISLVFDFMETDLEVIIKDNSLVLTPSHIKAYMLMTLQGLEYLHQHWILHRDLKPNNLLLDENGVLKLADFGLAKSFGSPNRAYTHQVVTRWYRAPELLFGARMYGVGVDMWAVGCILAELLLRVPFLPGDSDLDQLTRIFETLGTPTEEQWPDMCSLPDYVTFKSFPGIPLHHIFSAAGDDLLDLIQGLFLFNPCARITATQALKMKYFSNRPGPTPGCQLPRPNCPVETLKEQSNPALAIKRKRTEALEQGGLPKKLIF
Chain of CDK7 CyclinH (P51946 whole entry partner): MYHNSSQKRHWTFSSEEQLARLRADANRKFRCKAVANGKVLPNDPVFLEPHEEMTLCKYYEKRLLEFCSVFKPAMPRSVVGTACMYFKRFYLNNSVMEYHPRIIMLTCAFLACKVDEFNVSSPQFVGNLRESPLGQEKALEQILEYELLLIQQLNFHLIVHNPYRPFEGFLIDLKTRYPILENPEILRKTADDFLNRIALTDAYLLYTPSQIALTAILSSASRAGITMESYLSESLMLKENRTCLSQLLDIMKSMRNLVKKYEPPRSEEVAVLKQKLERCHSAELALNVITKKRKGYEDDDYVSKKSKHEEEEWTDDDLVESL
Chain of CDK7 CyclinH (P51948 whole entry partner): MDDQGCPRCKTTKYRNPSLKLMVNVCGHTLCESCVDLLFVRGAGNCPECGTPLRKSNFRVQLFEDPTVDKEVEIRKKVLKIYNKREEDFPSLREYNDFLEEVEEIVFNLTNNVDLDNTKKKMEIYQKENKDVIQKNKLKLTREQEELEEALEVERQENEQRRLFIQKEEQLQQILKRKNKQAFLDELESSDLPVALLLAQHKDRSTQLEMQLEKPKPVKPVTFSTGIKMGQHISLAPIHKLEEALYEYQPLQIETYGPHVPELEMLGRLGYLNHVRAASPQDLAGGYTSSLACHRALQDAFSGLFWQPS
Chain of CDK4-CYCLIND1 (P11802 whole entry): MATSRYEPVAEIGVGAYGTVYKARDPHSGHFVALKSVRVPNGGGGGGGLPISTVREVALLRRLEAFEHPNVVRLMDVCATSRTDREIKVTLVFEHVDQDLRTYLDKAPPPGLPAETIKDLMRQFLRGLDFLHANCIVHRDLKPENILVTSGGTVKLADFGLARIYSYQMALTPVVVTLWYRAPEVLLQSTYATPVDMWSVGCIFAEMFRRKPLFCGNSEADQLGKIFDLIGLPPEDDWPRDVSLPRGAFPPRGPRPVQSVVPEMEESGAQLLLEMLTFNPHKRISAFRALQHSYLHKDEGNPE
Chain of CDK4-CYCLIND1 (P24385 whole entry partner): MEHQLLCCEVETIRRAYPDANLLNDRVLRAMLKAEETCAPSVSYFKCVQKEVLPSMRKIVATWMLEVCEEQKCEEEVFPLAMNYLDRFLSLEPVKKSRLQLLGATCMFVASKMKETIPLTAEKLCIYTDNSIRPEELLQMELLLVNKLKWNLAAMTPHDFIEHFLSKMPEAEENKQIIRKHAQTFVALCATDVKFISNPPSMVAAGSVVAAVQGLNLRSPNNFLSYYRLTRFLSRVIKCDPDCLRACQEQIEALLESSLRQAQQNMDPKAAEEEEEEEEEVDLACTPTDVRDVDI
T3 sequence (P50750 whole entry): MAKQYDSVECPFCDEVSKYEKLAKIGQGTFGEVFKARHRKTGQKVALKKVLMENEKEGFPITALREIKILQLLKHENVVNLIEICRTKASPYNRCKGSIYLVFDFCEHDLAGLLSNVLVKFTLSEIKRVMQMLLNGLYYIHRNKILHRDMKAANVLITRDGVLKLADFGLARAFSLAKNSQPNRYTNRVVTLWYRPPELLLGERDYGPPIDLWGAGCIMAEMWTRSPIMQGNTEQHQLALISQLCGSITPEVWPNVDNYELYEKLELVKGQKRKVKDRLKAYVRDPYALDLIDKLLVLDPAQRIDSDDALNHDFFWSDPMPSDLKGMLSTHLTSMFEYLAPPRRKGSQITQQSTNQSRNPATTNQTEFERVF
T3 sequence (O60563 whole entry partner): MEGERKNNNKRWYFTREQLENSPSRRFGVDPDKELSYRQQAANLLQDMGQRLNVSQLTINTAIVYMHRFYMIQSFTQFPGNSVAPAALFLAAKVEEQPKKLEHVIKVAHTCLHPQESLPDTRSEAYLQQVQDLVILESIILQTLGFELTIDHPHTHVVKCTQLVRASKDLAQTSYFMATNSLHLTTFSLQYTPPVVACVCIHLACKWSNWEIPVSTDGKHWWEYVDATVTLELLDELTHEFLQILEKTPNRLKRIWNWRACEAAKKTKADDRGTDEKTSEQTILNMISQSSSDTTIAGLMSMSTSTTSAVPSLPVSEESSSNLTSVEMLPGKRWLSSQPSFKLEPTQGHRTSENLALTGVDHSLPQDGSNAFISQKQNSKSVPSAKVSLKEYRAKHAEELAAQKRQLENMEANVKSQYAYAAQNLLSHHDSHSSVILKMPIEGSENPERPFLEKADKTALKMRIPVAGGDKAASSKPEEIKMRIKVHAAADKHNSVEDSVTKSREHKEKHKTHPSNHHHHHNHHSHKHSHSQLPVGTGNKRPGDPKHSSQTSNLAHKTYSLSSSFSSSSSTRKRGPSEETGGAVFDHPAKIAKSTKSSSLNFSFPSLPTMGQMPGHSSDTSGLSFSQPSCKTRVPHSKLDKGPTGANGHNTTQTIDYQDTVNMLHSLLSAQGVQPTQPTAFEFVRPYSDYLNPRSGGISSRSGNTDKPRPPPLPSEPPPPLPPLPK
T2 sequence (Q00534 whole entry): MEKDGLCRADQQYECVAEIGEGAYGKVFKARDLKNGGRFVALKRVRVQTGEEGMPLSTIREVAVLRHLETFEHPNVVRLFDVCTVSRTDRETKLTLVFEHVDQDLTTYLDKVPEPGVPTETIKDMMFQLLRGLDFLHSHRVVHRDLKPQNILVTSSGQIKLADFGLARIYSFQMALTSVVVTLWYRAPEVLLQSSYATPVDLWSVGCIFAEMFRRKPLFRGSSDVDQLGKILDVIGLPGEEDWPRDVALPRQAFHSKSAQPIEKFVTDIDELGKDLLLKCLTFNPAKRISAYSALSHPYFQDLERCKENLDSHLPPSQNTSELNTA
T2 sequence (P30281 whole entry partner): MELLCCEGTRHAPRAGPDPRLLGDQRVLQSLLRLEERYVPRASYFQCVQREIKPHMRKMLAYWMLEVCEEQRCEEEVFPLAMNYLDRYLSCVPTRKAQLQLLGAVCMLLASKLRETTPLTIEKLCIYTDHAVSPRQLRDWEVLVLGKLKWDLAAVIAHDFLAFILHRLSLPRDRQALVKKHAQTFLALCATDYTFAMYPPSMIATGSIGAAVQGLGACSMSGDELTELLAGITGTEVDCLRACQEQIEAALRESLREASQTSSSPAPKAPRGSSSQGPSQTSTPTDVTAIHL
Protocol for CDK4-CYCLIND1: Inhibition assays were performed using microfluidic LabChip 300 Drug Discovery System from Caliper Life Sciences. […] The assay has a total volume of 10 μL consisting of 5 μL of enzyme and buffer and 5 μL of substrate and buffer. The test compounds were diluted in 100% dimethylsulfoxide (DMSO) using 3-fold dilution steps. […] Compounds were tested in a single well for each dilution and the final concentration of DMSO was maintained at 1%.
The assay buffer contained 100 mM HEPES, pH 7.5, 0.01% Triton X-100, 0.1% bovine serum albumin (BSA), 5 mM MgCl2; 1 mM dithiothreitol (DTT), 10 μM sodium orthovanadate, and 10 μM β-glycerophosphate.
The assay was conducted by adding 5 μL of enzyme, adenosine triphosphate (ATP) and buffer to an assay plate. A 100 nL aliquot of the diluted compounds were added to the plate. The assay was initiated by the addition of 5 μL of phosphoenolpyruvate substrate (PEP) in buffer. […] The reaction was terminated by the addition of EDTA. The plates were analyzed using a Caliper LabChip 3000.
Additional inhibition assays were performed as described above.
The assays were conducted as described above for the racemates.

For `CC(C)n1cc(-c2ccc(Nc3ncc4c(n3)N(C3CCCC3)C(=O)[C@]3(CCNC3=O)C4)nc2)cn1` [Example D170, (S)-8-cyclopentyl-2-((5-(1-isopropyl-1H-pyrazol-4-yl)pyridin-2-yl)amino)-5,8-dihydro-7H-spiro[pyrido[2,3-d]pyrimidine-6,3′-pyrrolidine]-2′,7-dione], the IC50 on CDK2-CYCLINA (Table 4a) was 8560 nM; on CDK6-CYCLIND3 (setting [1]) it was 53.1 nM; at CDK7 CyclinH (Table 4a) it was greater than 100000 nM; at CDK9-CYCLINT1 (Table 4a) it was 390 nM; on CDK4-CYCLIND1 (setting [2]), 42.3 nM.
As for `O=C1NCC[C@@]12Cc1cnc(Nc3ccc(-c4cn[nH]c4)cc3)nc1N(C1CCCC1)C2=O` [Example D168, (S)-2-((4-(1H-pyrazol-4-yl)phenyl)amino)-8-cyclopentyl-5,8-dihydro-7H-spiro[pyrido[2,3-d]pyrimidine-6,3′-pyrrolidine]-2′,7-dione], the IC50 at CDK2-CYCLINA (Table 4a) came to 55.4 nM; on CDK6-CYCLIND3 (setting [1]), 30 nM; at CDK7 CyclinH (Table 4a), 3100 nM; at CDK9-CYCLINT1 (Table 4a), 6.52 nM.
On to `CN1CCN(c2ccc(Nc3ncc4c(n3)N(C3CCCC3)C(=O)[C@]3(CCNC3=O)C4)cn2)CC1` [Example D150, (S)-8-cyclopentyl-2-((6-(4-methylpiperazin-1-yl)pyridin-3-yl)amino)-5,8-dihydro-7H-spiro[pyrido[2,3-d]pyrimidine-6,3′-pyrrolidine]-2′,7-dione], for which the IC50 at CDK2-CYCLINA (Table 4a) is 52.9 nM; at CDK6-CYCLIND3 (setting [1]) it was 2.34 nM; against CDK7 CyclinH (Table 4a), 402 nM; on CDK9-CYCLINT1 (Table 4a) it was 6.86 nM; at CDK4-CYCLIND1 (setting [2]), 1.16 nM.
Consider `O=C1NCC[C@@]12Cc1cnc(Nc3ccc(N4CCNCC4)c(F)c3)nc1N(C13CC(C1)C3)C2=O` [Example D184, (S)-8-(bicyclo[1.1.1]pentan-1-yl)-2-((3-fluoro-4-(piperazin-1-yl)phenyl)amino)-5,8-dihydro-7H-spiro[pyrido[2,3-d]pyrimidine-6,3′-pyrrolidine]-2′,7-dione], for which the IC50 at CDK2-CYCLINA (Table 4b, lower part) was 1400 nM; at CDK6-CYCLIND3 (Table 4b, lower part, read-out: CDK6 CyclinD3 IC50) it was 43.5 nM; on CDK7 CyclinH (Table 4b, lower part), 1690 nM; on CDK9-CYCLINT1 (Table 4b, lower part) it was 46.8 nM; at CDK4-CYCLIND1 (CDK4 CyclinD1 IC50, Table 4b, lower part, a second value in parentheses for some compounds) it was 19.6 nM and 11.1 nM.
Turning to `Cc1cc(Nc2ncc3c(n2)N(C2CCCC2)C(=O)[C@]2(CCNC2=O)C3)ccc1N1CCNCC1` [Example D156, (S)-8-cyclopentyl-2-((3-methyl-4-(piperazin-1-yl)phenyl)amino)-5,8-dihydro-7H-spiro[pyrido[2,3-d]pyrimidine-6,3′-pyrrolidine]-2′,7-dione], the IC50 on CDK2-CYCLINA (Table 4a) stood at 19.8 nM; at CDK6-CYCLIND3 (setting [1]) it was 2.3 nM; at CDK7 CyclinH (Table 4a) it was 166 nM; on CDK9-CYCLINT1 (Table 4a), 3.91 nM; on CDK4-CYCLIND1 (setting [2]) it was 0.92 nM.
For `COc1cc(Nc2ncc3c(n2)N(C2CCCC2)C(=O)[C@]2(CCNC2=O)C3)ccc1N1CCN(C)CC1` [Example D160, (S)-8-cyclopentyl-2-((3-methoxy-4-(4-methylpiperazin-1-yl)phenyl)amino)-5,8-dihydro-7H-spiro[pyrido[2,3-d]pyrimidine-6,3′-pyrrolidine]-2′,7-dione], in that order: 33.5 nM, 3.41 nM, 157 nM, 6.41 nM and 1.2 nM.
For `CN(C)[C@H]1CCN(c2ccc(Nc3ncc4c(n3)N(C3CCCC3)C(=O)[C@]3(CCNC3=O)C4)cc2)C1` [Example D174, (S)-8-cyclopentyl-2-((4-((S)-3-(dimethylamino)pyrrolidin-1-yl)phenyl)amino)-5,8-dihydro-7H-spiro[pyrido[2,3-d]pyrimidine-6,3′-pyrrolidine]-2′,7-dione] the same measures were 60.9 nM, 3.16 nM, 505 nM, 6.93 nM and 1.52 nM.
For `O=C1NCC[C@@]12Cc1cnc(Nc3ccc(N4CC5(CNC5)C4)cc3)nc1N(C1CCCC1)C2=O` [Example D172, (S)-2-((4-(2,6-diazaspiro[3.3]heptan-2-yl)phenyl)amino)-8-cyclopentyl-5,8-dihydro-7H-spiro[pyrido[2,3-d]pyrimidine-6,3′-pyrrolidine]-2′,7-dione] the same measures were 79.5 nM, 6.6 nM, 673 nM, 4.81 nM and 2.72 nM.
On to `CN1CCN(c2ccc(Nc3ncc4c(n3)N(C3CCCC3)C(=O)[C@]3(CCNC3=O)C4)c(F)c2)CC1` [Example D147, (S)-8-cyclopentyl-2-((2-fluoro-4-(4-methylpiperazin-1-yl)phenyl)amino)-5,8-dihydro-7H-spiro[pyrido[2,3-d]pyrimidine-6,3′-pyrrolidine]-2′,7-dione], for which the IC50 came to 951 nM at CDK2-CYCLINA (Table 4a); 188 nM on CDK6-CYCLIND3 (setting [1]); 4260 nM against CDK7 CyclinH (Table 4a); 518 nM at CDK9-CYCLINT1 (Table 4a); 73.2 nM at CDK4-CYCLIND1 (setting [2]).
`COc1cc(N2CCN(C)CC2)ccc1Nc1ncc2c(n1)N(C1CCCC1)C(=O)[C@]1(CCNC1=O)C2` [Example D166, (S)-8-cyclopentyl-2-((2-methoxy-4-(4-methylpiperazin-1-yl)phenyl)amino)-5,8-dihydro-7H-spiro[pyrido[2,3-d]pyrimidine-6,3′-pyrrolidine]-2′,7-dione]: the IC50 at CDK2-CYCLINA (Table 4a) worked out at 1860 nM; at CDK6-CYCLIND3 (setting [1]) it was 79.2 nM; at CDK7 CyclinH (Table 4a), 13900 nM; at CDK9-CYCLINT1 (Table 4a) it was 307 nM.
Regarding `Cc1cc(N2CCN(C)CC2)ccc1Nc1ncc2c(n1)N(C1CCCC1)C(=O)[C@]1(CCNC1=O)C2` [Example D163, (S)-8-cyclopentyl-2-((2-methyl-4-(4-methylpiperazin-1-yl)phenyl)amino)-5,8-dihydro-7H-spiro[pyrido[2,3-d]pyrimidine-6,3′-pyrrolidine]-2′,7-dione], the IC50 on CDK2-CYCLINA (Table 4a) was found to be 338 nM; at CDK6-CYCLIND3 (setting [1]), 10.6 nM; on CDK7 CyclinH (Table 4a), 2630 nM; on CDK9-CYCLINT1 (Table 4a) it was 65.1 nM; at CDK4-CYCLIND1 (setting [2]) it was 9.02 nM.
Consider `COc1cc(N2CCNCC2)ccc1Nc1ncc2c(n1)N(C1CCCC1)C(=O)[C@]1(CCNC1=O)C2` [Example D165, (S)-8-cyclopentyl-2-((2-methoxy-4-(piperazin-1-yl)phenyl)amino)-5,8-dihydro-7H-spiro[pyrido[2,3-d]pyrimidine-6,3′-pyrrolidine]-2′,7-dione], for which the IC50 at CDK2-CYCLINA (Table 4a) is 775 nM; on CDK6-CYCLIND3 (setting [1]), 58.5 nM; against CDK7 CyclinH (Table 4a), 7300 nM; at CDK9-CYCLINT1 (Table 4a), 236 nM; on CDK4-CYCLIND1 (setting [2]), 29.2 nM.
As for `Cn1cc(-c2ccc(Nc3ncc4c(n3)N(C3CCCC3)C(=O)[C@]3(CCNC3=O)C4)cc2)cn1` [Example D169, (S)-8-cyclopentyl-2-((4-(1-methyl-1H-pyrazol-4-yl)phenyl)amino)-5,8-dihydro-7H-spiro[pyrido[2,3-d]pyrimidine-6,3′-pyrrolidine]-2′,7-dione], the IC50 was found to be 33.5 nM at CDK2-CYCLINA (Table 4a), 9.37 nM on CDK6-CYCLIND3 (setting [1]), 2820 nM at CDK7 CyclinH (Table 4a) and 2.92 nM at CDK9-CYCLINT1 (Table 4a).
As for `CN1CCC2(Cc3cnc(Nc4ccc(N5CCNCC5)cc4)nc3N(C3CCCC3)C2=O)C1=O` (centres unmarked) [Example D1, 8-cyclopentyl-1′-methyl-2-((4-(piperazin-1-yl)phenyl)amino)-5,8-dihydro-7H-spiro[pyrido[2,3-d]pyrimidine-6,3′-pyrrolidine]-2′,7-dione], the IC50 at CDK6-CYCLIND3 (setting [3]) was 84.1 nM; against CDK4-CYCLIND1 (setting [4]) it was 27 nM.
For `CC(C)N1CCN(c2ccc(Nc3ncc4c(n3)N(C3CCCC3)C(=O)C3(CCNC3=O)C4)nc2)CC1` (centres unmarked) [Example D9, 8-cyclopentyl-2-((5-(4-isopropylpiperazin-1-yl)pyridin-2-yl)amino)-5,8-dihydro-7H-spiro[pyrido[2,3-d]pyrimidine-6,3′-pyrrolidine]-2′,7-dione] the same measures were 6.11 nM and 2.99 nM.
`CN(C)[C@H]1CCN(c2ccc(Nc3ncc4c(n3)N(C3CCCC3)C(=O)C3(CCNC3=O)C4)cc2F)C1` (stereo partly drawn) [Example D45, 8-cyclopentyl-2-((4-((S)-3-(dimethylamino)pyrrolidin-1-yl)-3-fluorophenyl)amino)-5,8-dihydro-7H-spiro[pyrido[2,3-d]pyrimidine-6,3′-pyrrolidine]-2′,7-dione]: the IC50 worked out at 5.46 nM on CDK6-CYCLIND3 (setting [3]) and 2.68 nM against CDK4-CYCLIND1 (setting [4]).
For `O=C1NCCC12Cc1cnc(Nc3ccc(N4CCNCC4)c(F)c3)nc1N(C1CCCC1)C2=O` (centres unmarked) [Example D11, 8-cyclopentyl-2-((3-fluoro-4-(piperazin-1-yl)phenyl)amino)-5,8-dihydro-7H-spiro[pyrido[2,3-d]pyrimidine-6,3′-pyrrolidine]-2′,7-dione], the IC50 at CDK6-CYCLIND3 (Table 3, second value of the cell CDK4/CDK6, value of the racemate, read-out: Racemate Activity CDK6) is 3.5 nM; at CDK6-CYCLIND3 (setting [3]), 4.38 nM; against CDK4-CYCLIND1 (setting [4]), 2.09 nM; at CDK4-CYCLIND1 (Racemate Activity CDK4, Table 3, first value of the cell CDK4/CDK6, value of the racemate), 2.1 nM.
For the compound `O=C1NCCC12Cc1cnc(Nc3ccc(N4CCNCC4)cc3F)nc1N(C1CCCC1)C2=O` (centres unmarked) [Example D32, 8-cyclopentyl-2-((2-fluoro-4-(piperazin-1-yl)phenyl)amino)-5,8-dihydro-7H-spiro[pyrido[2,3-d]pyrimidine-6,3′-pyrrolidine]-2′,7-dione], the IC50 at CDK6-CYCLIND3 (setting [3]) is 11.2 nM; against CDK4-CYCLIND1 (setting [4]), 5.16 nM.
